ChEMBL document CHEMBL1201862, “PubChem BioAssay data set” (2004)
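Five compound concentrations were applied to cells in 96-well plates for 48 hours; endpoints were derived by simple linear interpolation of the resulting dose-response curve. GI50 marks 50% less growth.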 Calls of active or inactive are those of the source. Rule as the data show it: active = GI50 up to about 1.1 µM and inactive = higher.

Tests used:
Experiment in all cases: NCI anticancer screen, dose series, 48 h
MOLT-4 = test system: MOLT-4
HOP-62 = test system: HOP-62
SN12C = test system: SN12C
OVCAR-4 = test system: OVCAR-4
CAKI-1 = test system: CAKI-1
U-251 = test system: U-251
TK-10 = test system: TK-10
SF-295 = test system: SF-295
LOX IMVI = test system: LOX IMVI
SK-MEL-5 = test system: SK-MEL-5
HL-60 = test system: HL-60
NCI-H23 = test system: NCI-H23
OVCAR-8 = test system: OVCAR-8
CCRF-CEM = test system: CCRF-CEM
A498 = test system: A498
SF-268 = test system: SF-268
HOP-92 = test system: HOP-92

Measured: GI50

O=C(O)COc1ccc(O)c2c1C(=O)CCCC2=O
inactive: MOLT-4 > 100 µM | HOP-62 > 100 µM | SN12C > 100 µM | OVCAR-4 > 100 µM | CAKI-1 > 100 µM | U-251 > 100 µM | TK-10 > 100 µM | SF-295 > 100 µM | LOX IMVI > 100 µM | SK-MEL-5 > 100 µM | HL-60 > 100 µM | NCI-H23 > 100 µM | OVCAR-8 > 100 µM | CCRF-CEM > 100 µM | A498 > 100 µM | SF-268 > 100 µM

COc1cc(C2C(C(=O)O)=C(COC(C)=O)Oc3cc4c(cc32)OCO4)cc(OC)c1OC(C)=O (stereo not given)
inactive: MOLT-4 > 100 µM | HOP-62 > 100 µM | SN12C > 100 µM | OVCAR-4 > 100 µM | CAKI-1 > 100 µM | U-251 > 100 µM | TK-10 > 100 µM | SF-295 > 100 µM | LOX IMVI > 100 µM | SK-MEL-5 > 100 µM | HL-60 > 100 µM | NCI-H23 > 100 µM | OVCAR-8 > 100 µM | CCRF-CEM > 100 µM | HOP-92 > 100 µM

COc1cc(C)c(C(=O)/C=C/c2cc(OC)c(O)c(OC)c2)cc1O
inactive: MOLT-4 > 100 µM | HOP-62 22.7 µM | OVCAR-4 21 µM | CAKI-1 26.4 µM | U-251 19.6 µM | TK-10 45.6 µM | SF-295 39 µM | LOX IMVI 19.5 µM | SK-MEL-5 17 µM | HL-60 22.1 µM | NCI-H23 12.2 µM | OVCAR-8 30.2 µM | CCRF-CEM 12.5 µM | A498 31.6 µM | SF-268 23.9 µM

O=C(/C=C\c1cccc2ccccc12)c1cccs1
inactive: MOLT-4 5.06 µM | HOP-62 17.7 µM | SN12C 16.8 µM | OVCAR-4 17.7 µM | CAKI-1 6.31 µM | U-251 4.43 µM | TK-10 19 µM | SF-295 15.6 µM | SK-MEL-5 13.3 µM | HL-60 3.25 µM | NCI-H23 16.7 µM | OVCAR-8 7.08 µM | CCRF-CEM 2.74 µM | A498 15.6 µM | HOP-92 11.9 µM | SF-268 11 µM

CC(=O)O[C@H]1CC[C@@]2(C)C(=CC[C@@H]3C2CC[C@]2(C)Nc4c(cnn4-c4ccccc4)CC32)C1 (stereo not given in full)
inactive: MOLT-4 2.07 µM | HOP-62 12.4 µM | OVCAR-4 14.9 µM | CAKI-1 15.3 µM | U-251 4.98 µM | TK-10 56.5 µM | SF-295 2.69 µM | SK-MEL-5 28.1 µM | HL-60 2.77 µM | NCI-H23 28.2 µM | OVCAR-8 29.4 µM | CCRF-CEM 5.51 µM | A498 10.6 µM
